# Experimental data as given in patent publication US20240101531A1, “PYRIDINAMINE DERIVATIVES AND THEIR USE AS POTASSIUM CHANNEL MODULATORS” (Xenon Pharmaceuticals Inc., priority 2022, published 2024).
# Where a name gives a salt, the structure may show the parent alone.
# Biological target: human KV7.2/KV7.3 (Homo sapiens (Human), UniProt O43525+O43526)
# Experiment: Potassium flux assay (IPG-2 AM dye)
# Assay type: cell-based
# Details: TREX HEK 293 or HEK 293 cells expressing human KV7.2/KV7.3; arithmetic mean values
# Outline: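 EC50 from 16 concentrations (2-fold dilutions, top 30 μM), scaled between DMSO baseline and a known KV7.x modulator maximum. Signal is IPG-2 AM fluorescence (ex 530/em 558 nm) after 10 mM KCl challenge buffer addition, following 20 min room-temperature compound exposure of HEK 293 or TREX HEK 293 cells stably expressing human KV7.2/KV7.3.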
row,Structure (SMILES),EC50
1,"COCCS(=O)(=Nc1ccc2c(Nc3ccc(Cl)nc3)nccc2c1)C1CC1 (stereo not shown) [Example 271, ((1-((6-chloropyridin-3-yl)amino)isoquinolin-6-yl)imino)(cyclopropyl)(2-methoxyethyl)-λ^6-sulfanone]",1000 to 10000 nM
2,"CS(=O)(CC1COC1)=Nc1ccc2c(Nc3ccc(Cl)nc3)nccc2c1 (stereo not shown) [Example 272, ((1-((6-chloropyridin-3-yl)amino)isoquinolin-6-yl)imino)(methyl)(oxetan-3-ylmethyl)-λ^6-sulfanone]",1000 to 10000 nM
3,"CS(=O)(=Nc1ccc2c(Nc3ccc(Cl)nc3)nccc2c1)C1COC1 (stereo not shown) [Example 275, ((1-((6-chloropyridin-3-yl)amino)isoquinolin-6-yl)imino)(methyl)(oxetan-3-yl)-λ^6-sulfanone]",1000 to 10000 nM
4,"Cc1ncc(Nc2nccc3cc(N=S(C)(=O)C4CC4)ccc23)cn1 (stereo not shown) [Example 278, cyclopropyl(methyl)((1-((2-methylpyrimidin-5-yl)amino)isoquinolin-6-yl)imino)-λ^6-sulfanone]",1000 to 10000 nM
5,"Clc1ccc(Nc2nccc3cc(OC[C@H]4CCCN4Cc4ccccc4)ccc23)cn1 [Example 280, (R)-6-((1-benzylpyrrolidin-2-yl)methoxy)-N-(6-chloropyridin-3-yl)isoquinolin-1-amine]",1000 to 10000 nM
6,"Clc1ccc(Nc2nccc3cc(OCc4cnn5c4CCC5)ccc23)cn1 [Example 281, N-(6-chloropyridin-3-yl)-6-((5,6-dihydro-4H-pyrrolo[1,2-b]pyrazol-3-yl)methoxy)isoquinolin-1-amine]",10000 to 30000 nM
7,"Clc1ccc(Nc2nccc3cc(OC4CCN(Cc5ccccc5)C4)ccc23)cn1 (stereo not shown) [Example 282, 6-((1-benzylpyrrolidin-3-yl)oxy)-N-(6-chloropyridin-3-yl)isoquinolin-1-amine]",1000 to 10000 nM
8,"Clc1ccc(Nc2nccc3cc(OC[C@@H]4CCN(Cc5ccccc5)C4)ccc23)cn1 [Example 283, (R)-6-((1-benzylpyrrolidin-3-yl)methoxy)-N-(6-chloropyridin-3-yl)isoquinolin-1-amine]",1000 to 10000 nM
9,"Clc1ccc(Nc2nccc3cc(OC[C@H]4CCN(Cc5ccccc5)C4)ccc23)cn1 [Example 284, (S)-6-((1-benzylpyrrolidin-3-yl)methoxy)-N-(6-chloropyridin-3-yl)isoquinolin-1-amine]",1000 to 10000 nM
10,Clc1ccc(Nc2nccc3cc(OCc4cnn5c4CCCC5)ccc23)cn1 [Example 285],1000 to 10000 nM
11,"CS(=O)(=O)C1(COc2ccc3c(Nc4ccc(Cl)nc4)nccc3c2)CC1 [Example 286, N-(6-chloropyridin-3-yl)-6-((1-(methylsulfonyl)cyclopropyl)methoxy)isoquinolin-1-amine]",1000 to 10000 nM
12,"CS(=O)(=O)C1(COc2ccc3c(Nc4ccc(Cl)nc4)nccc3c2)CCC1 [Example 287, N-(6-chloropyridin-3-yl)-6-((1-(methylsulfonyl)cyclobutyl)methoxy)isoquinolin-1-amine]",1000 to 10000 nM
13,"Clc1ccc(Nc2nccc3cc(OCc4cnn(C5CC5)c4)ccc23)cn1 [Example 289, N-(6-chloropyridin-3-yl)-6-((1-cyclopropyl-1H-pyrazol-4-yl)methoxy)isoquinolin-1-amine]",1000 to 10000 nM
14,"Cn1ncc(COc2ccc3c(Nc4ccc(Cl)nc4)nccc3c2)c1Cl [Example 291, 6-((5-chloro-1-methyl-1H-pyrazol-4-yl)methoxy)-N-(6-chloropyridin-3-yl)isoquinolin-1-amine]",1000 to 10000 nM
15,"Clc1ccc(Nc2nccc3cc(OCc4cnn(Cc5ccccc5)c4)ccc23)cn1 [Example 295, 6-((1-benzyl-1H-pyrazol-4-yl)methoxy)-N-(6-chloropyridin-3-yl)isoquinolin-1-amine]",1000 to 10000 nM
16,"CC(Cc1cnn(C)c1)Oc1ccc2c(Nc3ccc(Cl)nc3)nccc2c1 (stereo not shown) [Example 296, N-(6-chloropyridin-3-yl)-6-((1-(1-methyl-1H-pyrazol-4-yl)propan-2-yl)oxy)isoquinolin-1-amine]",1000 to 10000 nM
17,"Clc1ccc(Nc2nccc3cc(O[C@H]4CCOC4)ccc23)cn1 [Example 298, (S)-N-(6-chloropyridin-3-yl)-6-((tetrahydrofuran-3-yl)oxy)isoquinolin-1-amine trifluoroacetate]",1000 to 10000 nM
18,"C[C@]1(COc2ccc3c(Nc4ccc(Cl)nc4)nccc3c2)CCCO1 [Example 302, (R)—N-(6-chloropyridin-3-yl)-6-((2-methyltetrahydrofuran-2-yl)methoxy)isoquinolin-1-amine]",1000 to 10000 nM
19,"C[C@@]1(COc2ccc3c(Nc4ccc(Cl)nc4)nccc3c2)CCCO1 [Example 303, (S)—N-(6-chloropyridin-3-yl)-6-((2-methyltetrahydrofuran-2-yl)methoxy)isoquinolin-1-amine]",1000 to 10000 nM

# Continued, values first:
row,EC50,Structure (SMILES)
1,< 1000 nM,"Clc1ccc(Nc2nccc3cc(OCCCc4cn[nH]c4)ccc23)cn1 [Example 260, 6-(3-(1H-pyrazol-4-yl)propoxy)-N-(6-chloropyridin-3-yl)isoquinolin-1-amine]"
2,1000 to 10000 nM,"O=S1(=O)CC[C@@H](Oc2ccc3c(Nc4ccc(Cl)nc4)nccc3c2)C1 [Example 261, (R)-3-((1-((6-chloropyridin-3-yl)amino)isoquinolin-6-yl)oxy)tetrahydrothiophene 1,1-dioxide]"
3,1000 to 10000 nM,"O=S1(=O)CC[C@H](Oc2ccc3c(Nc4ccc(Cl)nc4)nccc3c2)C1 [Example 262, (S)-3-((1-((6-chloropyridin-3-yl)amino)isoquinolin-6-yl)oxy)tetrahydrothiophene 1,1-dioxide]"
4,< 1000 nM,"Clc1ccc(Nc2nccc3cc(OC4CCOC4)ccc23)cn1 (stereo not shown) [Example 263, N-(6-chloropyridin-3-yl)-6-((tetrahydrofuran-3-yl)oxy)isoquinolin-1-amine]"
5,1000 to 10000 nM,"C[C@]1(O)CC[C@H](Oc2ccc3c(Nc4ccc(Cl)nc4)nccc3c2)CC1 [Example 264, trans-4-((1-((6-chloropyridin-3-yl)amino)isoquinolin-6-yl)oxy)-1-methylcyclohexan-1-ol]"
6,< 1000 nM,"C[C@]1(O)CC[C@@H](Oc2ccc3c(Nc4ccc(Cl)nc4)nccc3c2)CC1 [Example 265, cis-4-((1-((6-chloropyridin-3-yl)amino)isoquinolin-6-yl)oxy)-1-methylcyclohexan-1-ol]"
7,1000 to 10000 nM,"Clc1ccc(Nc2nccc3cc(Oc4cccnc4)ccc23)cn1 [Example 266, N-(6-chloropyridin-3-yl)-6-(pyridin-3-yloxy)isoquinolin-1-amine]"
8,1000 to 10000 nM,"Clc1ccc(Nc2nccc3cc(Oc4cn[nH]c4)ccc23)cn1 [Example 267, 6-((1H-pyrazol-4-yl)oxy)-N-(6-chloropyridin-3-yl)isoquinolin-1-amine]"
9,< 1000 nM,"CS(=O)(=Nc1ccc2c(Nc3ccc(Cl)nc3)nccc2c1)C1CC1 (stereo not shown) [Example 268, ((1-((6-chloropyridin-3-yl)amino)isoquinolin-6-yl)imino)(cyclopropyl)(methyl)-λ^6-sulfanone]"
10,1000 to 10000 nM,"CS(=O)(CC1CC1)=Nc1ccc2c(Nc3ccc(Cl)nc3)nccc2c1 (stereo not shown) [Example 269, ((1-((6-chloropyridin-3-yl)amino)isoquinolin-6-yl)imino)(cyclopropylmethyl)(methyl)-λ^6-sulfanone]"
11,1000 to 10000 nM,"CS(=O)(=Nc1ccc2c(Nc3ccc(Cl)nc3)nccc2c1)C1CCOCC1 (stereo not shown) [Example 270, ((1-((6-chloropyridin-3-yl)amino)isoquinolin-6-yl)imino)(methyl)(tetrahydro-2H-pyran-4-yl)-λ^6-sulfanone]"
12,< 1000 nM,"FC(F)n1cc(COc2ccc3c(Nc4ccc(Cl)nc4)nccc3c2)cn1 [Example 279, N-(6-chloropyridin-3-yl)-6-((1-(difluoromethyl)-1H-pyrazol-4-yl)methoxy)isoquinolin-1-amine]"
13,< 1000 nM,"COC1(COc2ccc3c(Nc4ccc(Cl)nc4)nccc3c2)CCC1 [Example 288, N-(6-chloropyridin-3-yl)-6-((1-methoxycyclobutyl)methoxy)isoquinolin-1-amine]"
14,< 1000 nM,"Clc1ccc(Nc2nccc3cc(OC4CCC45COC5)ccc23)cn1 (stereo not shown) [Example 290, 6-((2-oxaspiro[3.3]heptan-5-yl)oxy)-N-(6-chloropyridin-3-yl)isoquinolin-1-amine]"
15,< 1000 nM,"Cn1cc(COc2ccc3c(Nc4ccc(Cl)nc4)nccc3c2)c(Cl)n1 [Example 292, 6-((3-chloro-1-methyl-1H-pyrazol-4-yl)methoxy)-N-(6-chloropyridin-3-yl)isoquinolin-1-amine]"
16,< 1000 nM,"CC1(COc2ccc3c(Nc4ccc(Cl)nc4)nccc3c2)CS(=O)(=O)C1 [Example 293, 3-(((1-((6-chloropyridin-3-yl)amino)isoquinolin-6-yl)oxy)methyl)-3-methylthietane 1,1-dioxide]"
17,< 1000 nM,"NS(=O)(=O)C1(COc2ccc3c(Nc4ccc(Cl)nc4)nccc3c2)CCC1 [Example 294, 1-(((1-((6-chloropyridin-3-yl)amino)isoquinolin-6-yl)oxy)methyl)cyclobutane-1-sulfonamide]"
18,< 1000 nM,"Clc1ccc(Nc2nccc3cc(O[C@@H]4CCOC4)ccc23)cn1 [Example 297, (R)-N-(6-chloropyridin-3-yl)-6-((tetrahydrofuran-3-yl)oxy)isoquinolin-1-amine trifluoroacetate]"
19,< 1000 nM,"CC1(C)OCC(COc2ccc3c(Nc4ccc(Cl)nc4)nccc3c2)O1 (stereo not shown) [Example 299, N-(6-chloropyridin-3-yl)-6-((2,2-dimethyl-1,3-dioxolan-4-yl)methoxy)isoquinolin-1-amine]"
20,< 1000 nM,"O=S1(=O)CC(COc2ccc3c(Nc4ccc(Cl)nc4)nccc3c2)C1 [Example 300, 3-(((1-((6-chloropyridin-3-yl)amino)isoquinolin-6-yl)oxy)methyl)thietane 1,1-dioxide]"
21,< 1000 nM,"Clc1ccc(Nc2nccc3cc(OCc4cnsc4)ccc23)cn1 [Example 301, N-(6-chloropyridin-3-yl)-6-(isothiazol-4-ylmethoxy)isoquinolin-1-amine]"
